Laboratory results reported in patent US10077289B2, “Cyclosporins modified on the MeBmt sidechain by heterocyclic rings” (priority 2015, dated 2018).
Values after ≈ are worked out from the molar mass of the structure shown. Read-outs that look alike come from different tables or passages of the source.

What was measured:
[1] = Water Solubility Assay (measured in pH 7.8 buffer); type: physicochemical; details: 25 °C, pH 7.8, aqueous buffer, kinetic from dmso stock
[2] = target: calcineurin/cyclophilin A (Homo sapiens (Human), UniProt P62937+P63098+Q08209); assay: Calcineurin Phosphatase (CaN) Assay (+CypA); type: biochemical; details: in the presence of Cyp A, 1:1 complex with inhibitor; read-out: Calcineurin Phosphatase (CaN) Assay (+CypA) IC50
[3] = target: Human recombinant cyclophilin A (Cyp A) (Homo sapiens (Human), UniProt P62937); assay: Protease-free PPIase assay
[4] = read-out: Protease-free PPIase Assay Ki, human recombinant Cyp A, 10 °C

Structure (SMILES) | solubility at 18 h [1] | IC50 [2] | Ki [3] | Ki [3, 4]
CC[C@H]1NC(=O)[C@@H]([C@H](O)[C@H](C)CCCc2nccn2C)N(C)C(=O)[C@@H](C(C)C)N(C)C(=O)[C@@H](CC(C)C)N(C)C(=O)[C@@H](CC(C)C)N(C)C(=O)[C@H](C)NC(=O)[C@@H](C)NC(=O)[C@@H](CC(C)C)N(C)C(=O)[C@@H](C(C)C)NC(=O)[C@H](CC(C)C)N(C)C(=O)[C@@H](C)N(C)C1=O [Compound 26, [(2S,3R,4R)-3-Hydroxy-7-(1-methyl-1H-imidazol-2-yl)-4-methyl-2-(methylamino)heptanoic acid]^1 [(R)-methyl-Sar]^3 cyclosporin A] | > 100 µM | > 10000 nM | 12.2 nM | –
CC[C@H]1NC(=O)[C@@H]([C@H](O)[C@H](C)CCCc2cnn(C)c2)N(C)C(=O)[C@@H](C(C)C)N(C)C(=O)[C@@H](CC(C)C)N(C)C(=O)[C@@H](CC(C)C)N(C)C(=O)[C@H](C)NC(=O)[C@@H](C)NC(=O)[C@@H](CC(C)C)N(C)C(=O)[C@@H](C(C)C)NC(=O)[C@H](CC(C)C)N(C)C(=O)[C@@H](C)N(C)C1=O [Compound 27, [(2S,3R,4R)-3-Hydroxy-4-methyl-2-(methylamino)-7-(1-methylpyrazol-4-yl)-heptanoic acid]^1 [(R)-methyl-Sar]^3 cyclosporin A] | > 100 µM | 1110 nM | 6.8 nM | –
CC[C@H]1NC(=O)[C@@H]([C@H](O)[C@H](C)CCCCc2ccccn2)N(C)C(=O)[C@@H](C(C)C)N(C)C(=O)[C@@H](CC(C)C)N(C)C(=O)[C@@H](CC(C)C)N(C)C(=O)[C@H](C)NC(=O)[C@@H](C)NC(=O)[C@@H](CC(C)C)N(C)C(=O)[C@@H](C(C)C)NC(=O)[C@H](CC(C)C)N(C)C(=O)[C@@H](C)N(C)C1=O [Compound 28, [(2S,3R,4R)-3-Hydroxy-4-methyl-2-(methylamino)-8-(pyridin-2-yl)-octanoic acid]^1 [(R)-methyl-Sar]^3 cyclosporin A] | 50 to 75 µM (≈ 64.8 to 97.2 µg/mL) | > 10000 nM | 3.9 nM | –
CC[C@H]1NC(=O)[C@@H]([C@H](O)[C@H](C)CCCc2ccccn2)N(C)C(=O)[C@@H](C(C)C)N(C)C(=O)[C@@H](CC(C)C)N(C)C(=O)[C@@H](CC(C)C)N(C)C(=O)[C@H](C)NC(=O)[C@@H](C)NC(=O)[C@@H](CC(C)C)N(C)C(=O)[C@@H](C(C)C)NC(=O)[C@H](CC(C)C)N(C)C(=O)CN(C)C1=O [Compound 29, [(2S,3R,4R)-3-Hydroxy-4-methyl-2-(methylamino)-7-(pyridine-2-yl)-heptanoic acid]^1 cyclosporin A] | 50 to 75 µM (≈ 63.4 to 95.1 µg/mL) | 2650 nM | – | 11 nM
CC[C@H]1NC(=O)[C@@H]([C@H](O)[C@H](C)CCCc2ccncc2)N(C)C(=O)[C@@H](C(C)C)N(C)C(=O)[C@@H](CC(C)C)N(C)C(=O)[C@@H](CC(C)C)N(C)C(=O)[C@H](C)NC(=O)[C@@H](C)NC(=O)[C@@H](CC(C)C)N(C)C(=O)[C@@H](C(C)C)NC(=O)[C@H](CC(C)C)N(C)C(=O)CN(C)C1=O [Compound 30, [(2S,3R,4R)-3-Hydroxy-4-methyl-2-(methylamino)-7-(pyridin-4-yl)-heptanoic acid]^1 cyclosporin A] | 50 to 75 µM (≈ 63.4 to 95.1 µg/mL) | 3150 nM | 14 nM | –
CC[C@H]1NC(=O)[C@@H]([C@H](O)[C@H](C)CCCc2cccnc2)N(C)C(=O)[C@@H](C(C)C)N(C)C(=O)[C@@H](CC(C)C)N(C)C(=O)[C@@H](CC(C)C)N(C)C(=O)[C@H](C)NC(=O)[C@@H](C)NC(=O)[C@@H](CC(C)C)N(C)C(=O)[C@@H](C(C)C)NC(=O)[C@H](CC(C)C)N(C)C(=O)CN(C)C1=O [Compound 31, [(2S,3R,4R)-3-Hydroxy-4-methyl-2-(methylamino)-7-(pyridin-3-yl)-heptanoic acid]^1 cyclosporin A] | 50 to 75 µM (≈ 63.4 to 95.1 µg/mL) | 3950 nM | 9.5 nM | –
CC[C@H]1NC(=O)[C@@H]([C@H](O)[C@H](C)CCCc2ncccn2)N(C)C(=O)[C@@H](C(C)C)N(C)C(=O)[C@@H](CC(C)C)N(C)C(=O)[C@@H](CC(C)C)N(C)C(=O)[C@H](C)NC(=O)[C@@H](C)NC(=O)[C@@H](CC(C)C)N(C)C(=O)[C@@H](C(C)C)NC(=O)[C@H](CC(C)C)N(C)C(=O)CN(C)C1=O [Compound 32, [(2S,3R,4R)-3-Hydroxy-4-methyl-2-(methylamino)-7-(pyrimidin-2-yl)-heptanoic acid]^1 cyclosporin A] | 75 to 100 µM (≈ 95.2 to 127 µg/mL) | 3450 nM | – | 8.3 nM
CC[C@H]1NC(=O)[C@@H]([C@H](O)[C@H](C)CCCc2ccncc2)N(C)C(=O)[C@@H](C(C)C)N(C)C(=O)[C@@H](CC(C)C)N(C)C(=O)[C@@H](CC(C)C)N(C)C(=O)[C@H](C)NC(=O)[C@@H](C)NC(=O)[C@@H](CC(C)C)N(C)C(=O)[C@@H](C(C)C)NC(=O)[C@H](CC(C)C)N(C)C(=O)[C@@H](COC)N(C)C1=O [Compound 33] | 75 to 100 µM (≈ 98.4 to 131 µg/mL) | 2390 nM | 3.1 nM | –
CC[C@H]1NC(=O)[C@@H]([C@H](O)[C@H](C)CCCc2ccccn2)N(C)C(=O)[C@@H](C(C)C)N(C)C(=O)[C@@H](CC(C)C)N(C)C(=O)[C@@H](CC(C)C)N(C)C(=O)[C@H](C)NC(=O)[C@@H](C)NC(=O)[C@@H](CC(C)C)N(C)C(=O)[C@@H](C(C)C)NC(=O)[C@H](CC(C)C)N(C)C(=O)[C@@H](CO)N(C)C1=O [Compound 34] | > 100 µM | 4650 nM | 3.1 nM | –
CC[C@H]1NC(=O)[C@@H]([C@H](O)[C@H](C)CCCc2ccccn2)N(C)C(=O)[C@@H](C(C)C)N(C)C(=O)[C@@H](CC(C)C)N(C)C(=O)[C@@H](CC(C)C)N(C)C(=O)[C@H](C)NC(=O)[C@@H](C)NC(=O)[C@@H](CC(C)C)N(C)C(=O)[C@@H](C(C)C)NC(=O)[C@H](CC(C)C)N(C)C(=O)[C@@H](SC)N(C)C1=O [Compound 35] | 75 to 100 µM (≈ 98.5 to 131 µg/mL) | 1600 nM | – | 4.4 nM
CC[C@H]1NC(=O)[C@@H]([C@H](O)[C@H](C)CCOc2ncccn2)N(C)C(=O)[C@@H](C(C)C)N(C)C(=O)[C@@H](CC(C)C)N(C)C(=O)[C@@H](CC(C)C)N(C)C(=O)[C@H](C)NC(=O)[C@@H](C)NC(=O)[C@@H](CC(C)C)N(C)C(=O)[C@@H](C(C)C)NC(=O)[C@H](CC(C)C)N(C)C(=O)[C@@H](C)N(C)C1=O [Compound 36, [(2S,3R,4R)-3-Hydroxy-4-methyl-2-(methylamino)-6-(pyrimidin-2-yloxy)-hexanoic acid]^1 cyclosporin A] | > 100 µM | 1260 nM | 7.7 nM | –
CC[C@H]1NC(=O)[C@@H]([C@H](O)[C@H](C)CCOCc2ccncc2)N(C)C(=O)[C@@H](C(C)C)N(C)C(=O)[C@@H](CC(C)C)N(C)C(=O)[C@@H](CC(C)C)N(C)C(=O)[C@H](C)NC(=O)[C@@H](C)NC(=O)[C@@H](CC(C)C)N(C)C(=O)[C@@H](C(C)C)NC(=O)[C@H](CC(C)C)N(C)C(=O)[C@@H](C)N(C)C1=O [Compound 37, [(2S,3R,4R)-3-Hydroxy-4-methyl-2-(methylamino)-6-(pyridin-4-ylmethoxy)-hexanoic acid]^1 cyclosporin A] | > 100 µM | 5640 nM | 5.6 nM | –
